In one assay the target is BlaR (Staphylococcus aureus, UniProt P18357). Kind of assay: Live-cell fluorescent assay for BlaR inhibition (Venus reporter). Format: cell-based, S. aureus NRS144pCN52RI-Venus. The note with it: compound at 100 mg/L^−1; CBAP 10 mg·L^−1; fluorescence after 2 h. The text has this: Live-Cell Fluorescent Assay in Discovery and Mechanism of Action. We conceived of fluorescent constructs in the bla operon, for the purpose of screening (FIG. 2a). We removed the gene for the β-lactamase (blaZ) and put in its place individually the genes for the Green Fluorescent Protein (GFP), Venus (a yellow-fluorescent protein) or mCherry (a red-fluorescent protein) in the template plasmid pCN52. The three plasmids were named pCN52RI, pCN52RI-Venus and pCN52RI-mCherry, respectively. The genes for the fluorescent proteins were transcribed under the promoter of the blaZ gene and were regulated by the proteins BlaR and BlaI, as is the case for the wild-type bla operon.
We transformed separately S. aureus NRS144—a laboratory strain that accepts a foreign gene and harbors neither the bla nor the mec operons—with each of these plasmids. […] When induced, the fluorescent protein is produced and is detected (akin to expression of the resistance genes blaZ or mecA in typical MSSA and MRSA). […] The transformed strains were grown in tryptic soy broth medium for overnight culture and strain maintenance and incubated in cation-adjusted Mueller-Hinton broth medium for inhibitor screening in a 96-well microplate format. The culture without CBAP addition was the negative control. In order to select a desirable reporter construct, we compared the intensity of the fluorescence produced from each construct at the wavelengths given in FIG. 2a using the Cytation-5 multi-mode microplate reader. Among the three constructs, pCN52RI-Venus produced the best fluorescence intensity and pCN52RI-mCherry was the second best (FIG. 4).
(§1) The collection of the 100 compounds from the in-silico search was screened against S. aureus NRS144pCN52RI-Venus. The screening strategy was as follows. Bacteria grown to OD600 of 0.25 were exposed concurrently to CBAP (10 mg·L^−1) and the test compound (100 mg·L^−1). Fluorescence was recorded after two hours of incubation. OD600 values were also recorded to identify compounds with inherent antibacterial activity. Compound 1 (Chart 1) emerged—82% diminished fluorescence as an indication of the extent of BlaR inhibition—as a suitable template for structure elaboration. This effort led to the synthesis of several dozen benzimidazole and imidazole compounds. The progression of the iterative design is depicted in Chart 1 for four compounds, culminating in 4. […] The X-ray structures for the complexes of compounds 2 (non-covalent) and 4 (covalent) with the BlaR sensor domain are shown respectively in FIG. 2b (2.0 Å resolution) and FIG. 2c (1.97 Å resolution). Compound 4 makes a covalent bond with the catalytic Ser389 and creates a network of hydrogen bonds with the BlaR active site (FIG. 2c).
(§2) Fluorescent assay for screening of BlaR potential inhibitors. A 3-mL portion of lysogeny broth (LB) medium was inoculated with NRS144pCN52RI Venus from frozen stocks and grown overnight at 37° C. The overnight culture was then diluted 1:150 fold with fresh LB containing […] of erythromycin and incubated at 37° C. to an OD600 of 0.3, at which point fluorescence was induced by the addition of CBAP to a final concentration of 10 μg·mL^−1. The culture was aliquoted (99 L) into 96-well plate and 1 L of inhibitor solution (1 mg·mL^−1 in DMSO) was added to each well. Negative control (DMSO without CBAP) and positive control (CBAP without inhibitor) were included. The plate was incubated at 30° C. for 2 h with intermittent shaking. Fluorescence and OD600 measurements were taken by a Cytation-5 multimode microplate reader. Percent inhibition of BlaR and bacterial growth were calculated using absorbance unit (AU) and OD600 values of each sample entered into this formula: […]

Assay [1] has as its system S. aureus NRS144pCN52RI-Venus. Kind of assay: Bacterial growth inhibition (OD600) in the fluorescent screening assay. The class given is cell-based, Staphylococcus aureus. The note with it: compound at 100 mg/L^−1; OD600 after 2 h. How it is done: as §1, §2

BlaR, sequence (P18357 whole entry): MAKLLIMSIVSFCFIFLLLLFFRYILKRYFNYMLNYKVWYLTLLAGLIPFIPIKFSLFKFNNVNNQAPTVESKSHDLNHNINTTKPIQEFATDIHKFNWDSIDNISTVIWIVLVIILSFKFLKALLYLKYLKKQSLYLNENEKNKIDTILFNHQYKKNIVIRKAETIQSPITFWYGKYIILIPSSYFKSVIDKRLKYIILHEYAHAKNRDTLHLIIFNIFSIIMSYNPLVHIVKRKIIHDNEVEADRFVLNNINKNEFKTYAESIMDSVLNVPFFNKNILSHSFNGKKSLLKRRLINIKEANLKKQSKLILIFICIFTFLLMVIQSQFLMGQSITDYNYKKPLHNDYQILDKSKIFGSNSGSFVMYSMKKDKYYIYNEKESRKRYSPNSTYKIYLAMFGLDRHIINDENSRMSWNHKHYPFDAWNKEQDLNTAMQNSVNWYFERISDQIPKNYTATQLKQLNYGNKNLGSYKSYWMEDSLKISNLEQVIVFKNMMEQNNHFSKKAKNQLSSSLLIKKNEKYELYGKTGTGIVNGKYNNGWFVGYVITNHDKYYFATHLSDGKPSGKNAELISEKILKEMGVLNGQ

For `CC(C)(C)OC(=O)NCc1cn(Cc2ccc(C(F)(F)F)cc2C(F)(F)F)c(S(=O)(=O)O)n1` [Compound 64], on BlaR, the “% Inhibition of BlaR” value is 75%. For the same compound, the “% Inhibition of bacterial growth” value in assay [1] came out at 40%.
For the compound `COc1ccc(CSc2nc(CNC(=O)OCc3ccccc3)cn2Cc2ccc(C(F)(F)F)cc2C(F)(F)F)cc1` [Compound 65], on BlaR, the “% Inhibition of BlaR” value came out at 19%. Besides, the “% Inhibition of bacterial growth” value in assay [1] is reported as 0%.
For the compound `N#CCCSc1nc2ccc(C#N)cc2n1Cc1ccc(C(F)(F)F)cc1C(F)(F)F` [Compound 36], the “% Inhibition of BlaR” value at BlaR was 90%. Besides, the “% Inhibition of bacterial growth” value in assay [1] stood at 40%.
On the same counts, the results for `Nc1nc2ccc(CO)cc2n1Cc1ccc(C(F)(F)F)cc1C(F)(F)F` [Compound 21] are 89% and 0%.
Take `N#Cc1ccc2nc(N)n(Cc3ccc(C(F)(F)F)cc3C(F)(F)F)c2c1` [Compound 19]: the “% Inhibition of BlaR” value on BlaR amounted to 55%. In addition, the “% Inhibition of bacterial growth” value in assay [1] is recorded as 0%.
As to `OB(O)CCc1nc2ccccc2n1Cc1ccc(C(F)(F)F)cc1C(F)(F)F` [Compound 46], the “% Inhibition of BlaR” value on BlaR amounted to 0%. For the same compound, the “% Inhibition of bacterial growth” value in assay [1] came to 49%.
With `OC[C@@H](O)[C@@H](O)c1cn(Cc2ccccc2)c(=S)[nH]1`, the “% Inhibition of BlaR” value on BlaR is recorded as 11%. Further, in assay [1], the “% Inhibition of bacterial growth” value stood at 0%.
For the compound `O=C(/C=C/c1ccc(F)cc1)NCc1ccc2nc(S(=O)(=O)O)n(Cc3ccc(C(F)(F)F)cc3C(F)(F)F)c2c1` [Compound 24], the “% Inhibition of bacterial growth” value in assay [1] is 24, R^4 = F, R^5 = H, X = SO3H, 100; 100%.
For the compound `OB(O)Cc1nc2ccccc2n1Cc1ccc(C(F)(F)F)cc1C(F)(F)F` [Compound 42], at BlaR, the “% Inhibition of BlaR” value was determined as 99%. For the same compound, the “% Inhibition of bacterial growth” value in assay [1] is on record as 82%.
For `COC(=O)c1ccc2nc(SCB(O)O)n(Cc3ccc(C(F)(F)F)cc3C(F)(F)F)c2c1` [Compound 33], the “% Inhibition of BlaR” value on BlaR was 95%. For the same compound, the “% Inhibition of bacterial growth” value in assay [1] came to 13%.
The like results for `O=C(/C=C/c1ccc(C(F)(F)F)cc1F)NCc1ccc2nc(S)n(Cc3ccc(C(F)(F)F)cc3C(F)(F)F)c2c1` [Compound 27] were, in that order, 79% and 55%.
In the case of `OCC1NC(=S)N(Cc2ccc(C(F)(F)F)cc2C(F)(F)F)N1` (stereo not shown) [Compound 77], the “% Inhibition of BlaR” value on BlaR is 71%. For the same compound, in assay [1], the “% Inhibition of bacterial growth” value came to 30%.
Turning to `O=C(O)c1ccc2nc(SCB(O)O)n(Cc3ccc(C(F)(F)F)cc3C(F)(F)F)c2c1` [Compound 34], at BlaR, the “% Inhibition of BlaR” value is given as 92%. Besides, in assay [1], the “% Inhibition of bacterial growth” value was 18%.
For `C[N+]12CC(=O)O[B-]1(CSc1nc3ccc(C#N)cc3n1Cc1ccc(C(F)(F)F)cc1C(F)(F)F)OC(=O)C2` (stereo not shown) [Compound 32], the “% Inhibition of BlaR” value at BlaR amounted to 93%. Also, in assay [1], the “% Inhibition of bacterial growth” value is 20%.
In the case of `OCc1ccc2nc(S)n(Cc3ccc(C(F)(F)F)cc3C(F)(F)F)c2c1` [Compound 17], the “% Inhibition of BlaR” value at BlaR was 0%. Besides, in assay [1], the “% Inhibition of bacterial growth” value was determined as 99%.
On to `COC(=O)c1ccc2nc(S)n(Cc3ccc(C(F)(F)F)cc3C(F)(F)F)c2c1` [Compound 15], for which, on BlaR, the “% Inhibition of BlaR” value is 10%. The “% Inhibition of bacterial growth” value in assay [1] turned out to be 0%.
As for `O=C(/C=C/c1ccc(C(F)(F)F)cc1F)NCc1ccc2nc(S(=O)(=O)O)n(Cc3ccc(C(F)(F)F)cc3C(F)(F)F)c2c1` [Compound 28], at BlaR, the “% Inhibition of BlaR” value was found to be 92%. Moreover, in assay [1], the “% Inhibition of bacterial growth” value is 100%.
On to `O=C(/C=C/c1ccc(F)cc1)NCc1ccc2nc(S(=O)(=O)O)n(Cc3ccc(C(F)(F)F)cc3C(F)(F)F)c2c1` [Compound 26], for which, at BlaR, the “% Inhibition of BlaR” value worked out at 99%. Besides, the “% Inhibition of bacterial growth” value in assay [1] came out at 100%.
With `OCCc1nc2ccccc2n1Cc1ccc(C(F)(F)F)cc1C(F)(F)F` [Compound 44], in assay [1], the “% Inhibition of bacterial growth” value is on record as 40%.
In the case of `O=C(/C=C/c1ccc(F)cc1)NCc1ccc2nc(S)n(Cc3ccc(C(F)(F)F)cc3C(F)(F)F)c2c1` [Compound 23], the “% Inhibition of BlaR” value at BlaR was 76%. The “% Inhibition of bacterial growth” value in assay [1] was 70%.
In the case of `OCC1NC(=S)N(c2ccc(C(F)(F)F)cc2)N1` (stereo not shown) [Compound 79], at BlaR, the “% Inhibition of BlaR” value is listed as 75%. Also, the “% Inhibition of bacterial growth” value in assay [1] amounted to 65%.
Turning to `COC(=O)c1ccc2nc(S(=O)(=O)O)n(Cc3ccc(C(F)(F)F)cc3C(F)(F)F)c2c1` [Compound 16], the “% Inhibition of BlaR” value on BlaR is reported as 20%. Further, in assay [1], the “% Inhibition of bacterial growth” value worked out at 0%.
The like results for `O=C(O)c1cn(Cc2ccc(C(F)(F)F)cc2C(F)(F)F)c(S(=O)(=O)O)n1` [Compound 72] were, in that order, 11% and 0%.
In the case of `OCc1nc2ccccc2n1Cc1ccc(C(F)(F)F)cc1C(F)(F)F` [Compound 40], the “% Inhibition of BlaR” value on BlaR was found to be 67%. In addition, the “% Inhibition of bacterial growth” value in assay [1] is listed as 25%.
Take `O=S(=O)(O)c1nc2ccccc2n1Cc1ccc(C(F)(F)F)cc1C(F)(F)F` [Compound 1, 1-[[2,4-Bis(trifluoromethyl)phenyl]methyl]benzimidazole-2-sulfonic acid]: the “% Inhibition of BlaR” value at BlaR was found to be 82%. Moreover, in assay [1], the “% Inhibition of bacterial growth” value is listed as 0%.
As for `N#Cc1ccc2c(c1)[nH]c(=S)n2Cc1ccc(C(F)(F)F)cc1C(F)(F)F` [Compound 9, 1-[2,4-bis(trifluoromethyl)benzyl]-5-nitrile-benzimidazole-2-thione], the “% Inhibition of bacterial growth” value in assay [1] turned out to be 97%.
For `O=S(=O)(O)c1nccn1Cc1ccc(C(F)(F)F)cc1C(F)(F)F` [Compound 54], the “% Inhibition of BlaR” value on BlaR came out at 18%. Besides, the “% Inhibition of bacterial growth” value in assay [1] is 0%.
On to `OC[C@@H](O)[C@H](O)[C@H](O)c1cn(Cc2ccccc2)c(=S)[nH]1`, for which, at BlaR, the “% Inhibition of BlaR” value is 13%. Moreover, the “% Inhibition of bacterial growth” value in assay [1] was found to be 0%.
Turning to `O=S(=O)(O)c1nc2ccc(CO)cc2n1Cc1ccc(C(F)(F)F)cc1C(F)(F)F` [Compound 18], at BlaR, the “% Inhibition of BlaR” value is recorded as 97%. Further, the “% Inhibition of bacterial growth” value in assay [1] came out at 0%.
For `O=C(CCc1ccc(F)cc1)NCc1ccc2nc(S(=O)(=O)O)n(Cc3ccc(C(F)(F)F)cc3C(F)(F)F)c2c1` [Compound 30], the “% Inhibition of BlaR” value on BlaR came out at 86%. The “% Inhibition of bacterial growth” value in assay [1] turned out to be 0%.
As to `NCc1cn(Cc2ccc(C(F)(F)F)cc2C(F)(F)F)c(S(=O)(=O)O)n1` [Compound 63], the “% Inhibition of BlaR” value on BlaR was found to be 50%. In addition, the “% Inhibition of bacterial growth” value in assay [1] was 18%.
Regarding `NS(=O)(=O)c1nc([C@H](O)[C@H](O)CO)cn1Cc1ccccc1` [Compound 53], the “% Inhibition of bacterial growth” value in assay [1] turned out to be 49%.
On to `COC(=O)c1ccc2nc(N)n(Cc3ccc(C(F)(F)F)cc3C(F)(F)F)c2c1` [Compound 20], for which the “% Inhibition of bacterial growth” value in assay [1] is recorded as 0%.
With `C[N+]12CC(=O)O[B-]1(CSc1nc3ccccc3n1Cc1ccc(C(F)(F)F)cc1C(F)(F)F)OC(=O)C2` (stereo not shown) [Compound 31, (T-4)-[N-[(Carboxy-κO)methyl]-N-methylglycinato(2-)-κN,κO][[N^1-[[2,4-bis(trifluoromethyl)phenyl]methyl]-1H-benzimidazole-1-yl]thiomethyl]boron], in assay [1], the “% Inhibition of bacterial growth” value is listed as 13%.
As to `O=S(=O)(F)c1nc(CO)cn1Cc1ccc(C(F)(F)F)cc1C(F)(F)F` [Compound 59], the “% Inhibition of bacterial growth” value in assay [1] is reported as 83%.
For `CC(C)(C)OC(=O)NCc1cn(Cc2ccc(C(F)(F)F)cc2C(F)(F)F)c(=S)[nH]1` [Compound 47], in assay [1], the “% Inhibition of bacterial growth” value was determined as 0%.

Values taken from US20260284011A1, “COMPOUNDS FOR RESTORING SUSCEPTIBILITY TO BETA-LACTAM ANTIBIOTICS” (UNIVERSITY OF NOTRE DAME DU LAC, priority 2023, published 2026).
